According to US8058242B2, “Chimeric proteins with natriuretic activity” (The University of Queensland, priority 2004, dated 2011):
Where two headings read alike, the source gives them in different places. Positions of bridges follow the written chain, without caps; N, C: chain ends. Non-standard residues stand in square brackets, D forms with d. Residues, ends and D or L forms follow the SMILES beside them. Sec = N[C@@H](C[SeH])C(=O)O

Legend:
[1] = molecular target: T1, Natriuretic Peptide Receptor-A (NPR-A) signaling in MDCK cells (Canis lupus familiaris, UniProt A0A8I3MHU3); type: cell-based, canine; details: for EC50: read-out: EC50 (M) ± Standard Error
T1 sequence (A0A8I3MHU3 32-1060): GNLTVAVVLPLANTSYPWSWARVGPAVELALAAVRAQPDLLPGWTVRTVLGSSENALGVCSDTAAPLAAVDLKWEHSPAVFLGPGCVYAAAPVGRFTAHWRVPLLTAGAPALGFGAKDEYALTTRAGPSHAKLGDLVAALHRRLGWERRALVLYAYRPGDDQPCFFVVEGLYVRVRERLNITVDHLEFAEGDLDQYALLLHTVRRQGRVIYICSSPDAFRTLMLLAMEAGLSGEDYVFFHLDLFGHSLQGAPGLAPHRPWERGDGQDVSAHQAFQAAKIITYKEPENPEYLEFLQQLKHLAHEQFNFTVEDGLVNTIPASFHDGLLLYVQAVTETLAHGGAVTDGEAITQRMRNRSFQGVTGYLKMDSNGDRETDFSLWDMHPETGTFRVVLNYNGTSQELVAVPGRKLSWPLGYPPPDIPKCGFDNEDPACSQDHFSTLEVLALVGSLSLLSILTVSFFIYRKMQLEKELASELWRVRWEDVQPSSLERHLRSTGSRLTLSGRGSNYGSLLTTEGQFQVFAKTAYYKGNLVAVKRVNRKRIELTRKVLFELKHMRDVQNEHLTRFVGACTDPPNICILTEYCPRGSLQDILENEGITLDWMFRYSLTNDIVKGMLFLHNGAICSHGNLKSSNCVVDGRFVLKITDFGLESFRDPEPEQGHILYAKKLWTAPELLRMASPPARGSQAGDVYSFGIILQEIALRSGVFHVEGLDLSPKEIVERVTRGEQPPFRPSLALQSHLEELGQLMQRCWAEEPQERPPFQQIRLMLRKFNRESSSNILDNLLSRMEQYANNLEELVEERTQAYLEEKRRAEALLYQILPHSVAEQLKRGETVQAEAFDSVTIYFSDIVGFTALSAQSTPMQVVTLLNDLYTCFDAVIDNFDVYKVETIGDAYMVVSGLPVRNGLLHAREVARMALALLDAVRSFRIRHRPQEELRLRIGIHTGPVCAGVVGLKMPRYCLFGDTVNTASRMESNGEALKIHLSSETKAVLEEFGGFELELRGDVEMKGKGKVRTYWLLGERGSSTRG

conscious rabbits = test: Blood pressure and heart rate in conscious rabbits, intravenous infusion dose-response (Example 8)
[2] = stimulation of cGMP accumulation in MDCK cells
[3] = after a 2 hour recovery period, Table 10B

Compound: CC[C@H](C)[C@H](NC(=O)[C@H](CCCCN)NC(=O)[C@H](CO)NC(=O)[C@H](CC(=O)O)NC(=O)[C@@H](N)CO)C(=O)NCC(=O)N[C@@H](CC(N)=O)C(=O)NCC(=O)N[C@H]1CSSC[C@@H](C(=O)N[C@@H](CC(N)=O)C(=O)N[C@@H](CCCNC(=N)N)C(=O)N[C@H](C(=O)N[C@@H](CCSC)C(=O)N[C@@H](CCC(N)=O)C(=O)N[C@@H](CC(N)=O)C(=O)N2CCC[C@H]2C(=O)N2CCC[C@H]2C(=O)N[C@@H](CCCCN)C(=O)N[C@@H](CCCCN)C(=O)N[C@@H](Cc2ccccc2)C(=O)N[C@@H](CO)C(=O)NCC(=O)N[C@@H](CCC(=O)O)C(=O)O)[C@@H](C)CC)NC(=O)CNC(=O)[C@H](CC(C)C)NC(=O)CNC(=O)[C@H](CO)NC(=O)[C@H](C(C)C)NC(=O)[C@H](CO)NC(=O)[C@H](CCCNC(=N)N)NC(=O)[C@H]([C@@H](C)CC)NC(=O)[C@H](CCCNC(=N)N)NC(=O)[C@H](CC(=O)O)NC(=O)[C@H](CC(C)C)NC(=O)[C@@H]2CCCN2C(=O)[C@H](Cc2ccccc2)NC(=O)CNC(=O)[C@H](Cc2ccccc2)NC1=O [TNPc R-18] (H-SDSKIGNGCFGFPLDRIRSVSGLGCNRIMQNPPKKFSGE-OH; disulfide 9-25; N-terminus assumed)
- −Log10 EC50 (pEC50) ± Standard Error [1, 2]: 6.777 ± 0.5812
- EC50 [1, 2]: 7e-07 M
- MAP at final dose (conscious rabbits; Table 10B): 63.5 mm Hg
- Recovery (MAP) (conscious rabbits; [3]): 67.4 mm Hg
- Recovery Delta SED (MAP) (conscious rabbits; [3]): 3.8 ± 1.6 mm Hg
- Treatment Effect, change of mean blood pressure during the infusion (conscious rabbits; final dose, Table 10B, groups 2B and 2C): −9.0 mm Hg
- reduction of MAP compared to vehicle, in words (conscious rabbits; highest dose): did significantly reduce MAP

Compound: CC[C@H](C)[C@@H]1NC(=O)[C@H](CCCNC(=N)N)NC(=O)[C@H](CC(=O)O)NC(=O)[C@H]([C@@H](C)CC)NC(=O)[C@H](CCCCN)NC(=O)[C@H](Cc2c[nH]cn2)NC(=O)CNC(=O)[C@H](Cc2ccccc2)NC(=O)[C@@H](NC(=O)CNC(=O)[C@H](CC(=O)O)NC(=O)[C@@H]2CCCN2C(=O)[C@H](C)NC(=O)[C@H](CCCCN)NC(=O)[C@H](CCCCN)NC(=O)[C@H](CCCCN)NC(=O)[C@@H]2CCCN2C(=O)[C@@H]2CCCN2C(=O)[C@H](CCC(=O)O)NC(=O)[C@H](CC(N)=O)NC(=O)[C@H](CCC(=O)O)NC(=O)CN)CSSC[C@@H](C(=O)N[C@@H](CC(N)=O)C(=O)N[C@@H](CCCCN)C(=O)N[C@@H](Cc2ccccc2)C(=O)N[C@@H](CCCCN)C(=O)N2CCC[C@H]2C(=O)NCC(=O)N[C@@H](Cc2c[nH]cn2)C(=O)O)NC(=O)CNC(=O)[C@H](CC(C)C)NC(=O)CNC(=O)[C@H](CO)NC(=O)[C@H](Cc2c[nH]cn2)NC(=O)[C@H](CO)NC(=O)CNC1=O [PNP, reference compound] (H-GENEPPKKKAPDGCFGHKIDRIGSHSGLGCNKFKPGH-OH; disulfide 14-30)
- −Log10 EC50 (pEC50) ± Standard Error [1, 2]: 6.660 ± 0.4500
- EC50 [1, 2]: 3.47e-07 M

Compound: CC[C@H](C)[C@H](NC(=O)[C@H](CCCCN)NC(=O)[C@H](CO)NC(=O)[C@H](CC(=O)O)NC(=O)[C@@H](N)CO)C(=O)NCC(=O)N[C@@H](CC(N)=O)C(=O)NCC(=O)N[C@H]1CSSC[C@@H](C(=O)N[C@@H](CC(N)=O)C(=O)N[C@@H](CCCNC(=N)N)C(=O)N2CCC[C@H]2C(=O)N[C@@H](CCSC)C(=O)N[C@@H](CCC(N)=O)C(=O)N[C@@H](CC(N)=O)C(=O)N2CCC[C@H]2C(=O)N2CCC[C@H]2C(=O)N[C@@H](CCCCN)C(=O)N[C@@H](CCCCN)C(=O)N[C@@H](Cc2ccccc2)C(=O)N[C@@H](CO)C(=O)NCC(=O)N[C@@H](CCC(=O)O)C(=O)O)NC(=O)CNC(=O)[C@H](CC(C)C)NC(=O)CNC(=O)[C@H](CO)NC(=O)[C@H](C(C)C)NC(=O)[C@H](CO)NC(=O)CNC(=O)[C@H]([C@@H](C)CC)NC(=O)[C@H](CCCNC(=N)N)NC(=O)[C@H](CC(=O)O)NC(=O)[C@H](CC(C)C)NC(=O)[C@@H]2CCCN2C(=O)[C@H](Cc2ccccc2)NC(=O)CNC(=O)[C@H](Cc2ccccc2)NC1=O [Peptide I28P-TNPc] (H-SDSKIGNGCFGFPLDRIGSVSGLGCNRPMQNPPKKFSGE-OH; disulfide 9-25; N-terminus assumed)
- −Log10 EC50 (pEC50) ± Standard Error [1, 2]: 5.995 ± 0.2450
- EC50 [1, 2]: 1.19e-06 M

Compound: CC[C@H](C)[C@H](NC(=O)[C@H](CCCCN)NC(=O)[C@H](CO)NC(=O)[C@H](CC(=O)O)NC(=O)[C@@H](N)CO)C(=O)NCC(=O)N[C@@H](CC(N)=O)C(=O)NCC(=O)N[C@H]1C[Se][Se]C[C@@H](C(=O)N[C@@H](CC(N)=O)C(=O)N[C@@H](CCCNC(=N)N)C(=O)N[C@H](C(=O)N[C@@H](CCSC)C(=O)N[C@@H](CCC(N)=O)C(=O)N[C@@H](CC(N)=O)C(=O)N2CCC[C@H]2C(=O)N2CCC[C@H]2C(=O)N[C@@H](CCCCN)C(=O)N[C@@H](CCCCN)C(=O)N[C@@H](Cc2ccccc2)C(=O)N[C@@H](CO)C(=O)NCC(=O)N[C@@H](CCC(=O)O)C(=O)O)[C@@H](C)CC)NC(=O)CNC(=O)[C@H](CC(C)C)NC(=O)CNC(=O)[C@H](CO)NC(=O)[C@H](C(C)C)NC(=O)[C@H](CO)NC(=O)CNC(=O)[C@H]([C@@H](C)CC)NC(=O)[C@H](CCCNC(=N)N)NC(=O)[C@H](CC(=O)O)NC(=O)[C@H](CC(C)C)NC(=O)[C@@H]2CCCN2C(=O)[C@H](Cc2ccccc2)NC(=O)CNC(=O)[C@H](Cc2ccccc2)NC1=O [Sec2-TNPc] (H-SDSKIGNG[Sec]FGFPLDRIGSVSGLG[Sec]NRIMQNPPKKFSGE-OH; diselenide 9-25)
- −Log10 EC50 (pEC50) ± Standard Error [1]: 7.463 ± 0.4096
- EC50 [1]: 6.39e-08 M

Compound: CC[C@H](C)[C@H](NC(=O)[C@H](CCCCN)NC(=O)[C@H](CO)NC(=O)[C@H](CC(=O)O)NC(=O)[C@@H](N)CO)C(=O)NCC(=O)N[C@@H](CC(=O)O)C(=O)NCC(=O)N[C@H]1CSSC[C@@H](C(=O)N[C@@H](CC(N)=O)C(=O)N[C@@H](CCCNC(=N)N)C(=O)N[C@H](C(=O)N[C@@H](CCSC)C(=O)N[C@@H](CCC(N)=O)C(=O)N[C@@H](CC(N)=O)C(=O)N2CCC[C@H]2C(=O)N2CCC[C@H]2C(=O)N[C@@H](CCCCN)C(=O)N[C@@H](CCCCN)C(=O)N[C@@H](Cc2ccccc2)C(=O)N[C@@H](CO)C(=O)NCC(=O)N[C@@H](CCC(=O)O)C(=O)O)[C@@H](C)CC)NC(=O)CNC(=O)[C@H](CC(C)C)NC(=O)CNC(=O)[C@H](CO)NC(=O)[C@H](C(C)C)NC(=O)[C@H](CO)NC(=O)CNC(=O)[C@H]([C@@H](C)CC)NC(=O)[C@H](CCCNC(=N)N)NC(=O)[C@H](CC(=O)O)NC(=O)[C@H](CC(C)C)NC(=O)[C@@H]2CCCN2C(=O)[C@H](Cc2ccccc2)NC(=O)CNC(=O)[C@H](Cc2ccccc2)NC1=O [Peptide N7D-TNPc] (H-SDSKIGDGCFGFPLDRIGSVSGLGCNRIMQNPPKKFSGE-OH; disulfide 9-25; N-terminus assumed)
- −Log10 EC50 (pEC50) ± Standard Error [1, 2]: 7.585 ± 0.005
- EC50 [1, 2]: 2.62e-08 M
